The values that follow come from patent US10351759B2, “Methods of assessing oil field saturation through use of reactive partitioning tracers” (RESTRACK AS, priority 2014, dated 2019).

Holding throughout (assay type): physicochemical
Series [1] can be described thus: oil/water partition coefficient (K-value), static batch experiments, model oil.
A short description of series [2]: oil/water partition coefficient (K-value), static batch experiments, field oil phases North field 1 and North field 2. The note with it: ionic strength in aqueous phase 0.776, pH 6.2, 50° C.
Series [3] can be described thus: K-values of tested compounds A to G. The source says:
Some tested compounds having other combinations of substitution and hydroxyalkyl group position include compounds A to G shown in FIG. 3.
These compounds have K-values measured as follows:
The K-values can vary with pH, as shown below for compounds B and F: […]

[4] abbreviates: pH (aqueous phase) 6.2, ionic strength in aqueous phase 0.776, model oil (isooctane 60%/toluene 30%/1-octanol 10%), 50° C.
Setting [5] is: pH (aqueous phase) 7.0, ionic strength in aqueous phase 0.776, model oil (isooctane 60%/toluene 30%/1-octanol 10%), 50° C.
[6] abbreviates: pH (aqueous phase) 8.0, ionic strength in aqueous phase 0.776, model oil (isooctane 60%/toluene 30%/1-octanol 10%), 50° C.

In the case of “2,3-difluoro hydroxybenzoic acid [reference compound]”, the “oil/water partition coefficient, K-value” in series [1] (setting [4]), in series [1] (setting [5]) and in series [1] (setting [6]) was 0.0 each time.

For `O=C(O)c1ccc(CO)cc1F` [2-fluoro-4-(hydroxymethyl) benzoic acid, 2-Fluoro-4-(hydroxymethyl)benzoic acid], the “oil/water partition coefficient, K-value” in series [2] (oil phase North field 1), in series [2] (oil phase North field 2), in series [1] (pH 6.2), in series [1] (pH 7) and in series [1] (pH 8) was 0.0 throughout.

In the case of `COC(=O)c1c(F)ccc(CO)c1F` [B, Methyl ester of 2-6-difluoro-3-hydroxymethyl benzoic acid], the K-value in series [3] (pH (aqueous phase) 6.2) is 3.0; in series [3] (pH (aqueous phase) 7.0) it was 2.8; in series [3] (pH (aqueous phase) 8.0), 2.4.

As for `CCCCOC(=O)c1ccc(CO)cc1F` [Butyl ester of 2-fluoro-4-(hydroxymethyl) benzoic acid], the “oil/water partition coefficient, K-value” in series [2] (oil phase North field 1) worked out at 18.7; in series [2] (oil phase North field 2), 23.6; in series [1] (setting [4]), 127.5; in series [1] (setting [5]), 126.1; in series [1] (setting [6]), 132.2.

As for `CCOC(=O)c1ccc(CO)cc1F` [Ethyl ester of 2-fluoro-4-(hydroxymethyl) benzoic acid], the “oil/water partition coefficient, K-value” in series [2] (oil phase North field 1) turned out to be 1.6; in series [2] (oil phase North field 2) it was 2.5; in series [1] (setting [4]), 10.9; in series [1] (setting [5]), 11.2; in series [1] (setting [6]), 11.8.

With `CCOC(=O)c1cc(F)cc(CO)c1` [F, Ethyl ester of 3-fluoro-5-hydroxymethyl benzoic acid], the K-value is 6.7 in series [3] (pH (aqueous phase) 6.2), 6.3 in series [3] (pH (aqueous phase) 7.0) and 6.1 in series [3] (pH (aqueous phase) 8.0).

As for `COC(=O)c1ccc(CO)cc1F` [Methyl ester of 2-fluoro-4-(hydroxymethyl) benzoic acid], the “oil/water partition coefficient, K-value” in series [2] (oil phase North field 1) is 0.6; in series [2] (oil phase North field 2), 0.8; in series [1] (setting [4]), 3.2; in series [1] (setting [5]), 3.4; in series [1] (setting [6]), 3.3.

`CCCOC(=O)c1ccc(CO)cc1F` [Proply ester of 2-fluoro-4-(hydroxymethyl) benzoic acid]: the “oil/water partition coefficient, K-value” in series [2] (oil phase North field 1) amounted to 5.9; in series [2] (oil phase North field 2), 7.5; in series [1] (setting [4]), 41.7; in series [1] (setting [5]), 44.2; in series [1] (setting [6]), 48.7.
